Laboratory results taken from US20210009551A1, “COMPOUNDS AND METHODS FOR TREATING FIBROSIS OR CANCER” (THE REGENTS OF THE UNIVERSITY OF CALIFORNIA, priority 2016, published 2021).
Values joined by “and” are separate entries in the source; they are usually repeats but may differ in a detail not shown here. Equal entries are not always repeated. “Also recorded” adds a separate entry of the source.

Columns and labels:
[1] = biological target: T1, human TGFbeta receptor I and II (Homo sapiens, UniProt P36897); assay: In vitro TGFβ receptor kinase assay (pull down); format: biochemical; conditions: 20 μM
T1 construct: expressed in transfected cells; host or cells: A549 cells, anti-Flag immunoprecipitate on Protein G-agarose
T1 sequence (P36897 34-503): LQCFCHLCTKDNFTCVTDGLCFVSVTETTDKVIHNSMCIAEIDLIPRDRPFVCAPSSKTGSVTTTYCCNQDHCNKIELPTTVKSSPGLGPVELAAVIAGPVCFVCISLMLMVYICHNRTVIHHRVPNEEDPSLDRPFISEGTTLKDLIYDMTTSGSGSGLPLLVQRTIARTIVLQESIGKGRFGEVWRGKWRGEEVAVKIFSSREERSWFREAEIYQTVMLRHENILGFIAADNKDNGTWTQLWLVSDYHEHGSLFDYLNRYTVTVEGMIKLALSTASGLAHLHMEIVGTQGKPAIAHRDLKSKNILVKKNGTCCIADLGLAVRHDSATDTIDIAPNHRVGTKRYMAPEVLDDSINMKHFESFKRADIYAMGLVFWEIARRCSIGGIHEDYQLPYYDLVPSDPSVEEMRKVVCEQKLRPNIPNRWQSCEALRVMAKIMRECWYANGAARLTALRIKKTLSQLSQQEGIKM
Procedure: In vitro TGFβ receptor kinase assay. A549 cells were transiently co-transfected with Flag-tagged human TGFbeta receptor I and II. After 24 hours the cells were lysed in 1% NP40 lysis buffer (1% NP40, 20 mM Tris pH7.6, 200 mM NaCl plus protease inhibitor cocktail, 10 mM NaF, 1 mM Na3VO4), and the type I and II receptors were immunoprecipitated using anti-Flag antibody and Protein G-agarose (Roche). The beads were washed three times with kinase buffer (0.01% Triton X-100, 25 mM HEPES, pH 7.4, 2 mM MnCl2, 10 mM MgCl2, 20 μM DTT, 0.1 mM NaF, 0.1 mM Na3 VO4). The kinase reactions were initiated by addition of 0.1 mM ATP in the presence or absence of inhibitors or lysate from A549 cells pre-treated with corilagin. The kinase reactions were terminated by addition of an equal volume of 2×sample buffer. The TGFbeta receptor kinase activity was analyzed by SDS-PAGE and immunoblotting with anti-phosphotyrosine monoclonal antibody 4G10 (EMD Millipore) and anti-Flag antibody.

[2] = test system: C57BL/6 mice, intratracheal bleomycin; assay: Bleomycin fibrosis model; format: in vivo
Procedure: For histological assessment of lung collagen, frozen sections of the left lung were stained using Masson's Trichrome stain kit (American MasterTech, Lodi, Calif., USA).
Bleomycin fibrosis model. Eight-week old C57BL/6 mice were intratracheally instilled with saline or 1.9 units/kg of bleomycin (Sigma-Aldrich). Mice were implanted with osmotic pumps loaded with ellagic acid salt (24 mg/kg/day, Day 10-Day 17), fed with red raspberry diet (Day 0-Day 21), or gavaged with corilagin (100 mg/kg, Day 10-Day 21). Controls were treated with control pump, control diet, or vehicle in the same formulation. The lungs were lavaged and followed by OCT embedding for imaging or snap freezing in liquid nitrogen for protein extraction or hydroxyproline assay.
Collagen content Lung or aorta collagen content was evaluated using hydroxyproline assay. Briefly, whole left lung tissue or aorta was hydrolyzed in 1 ml 12N HCl at 110° C. for 24 h and the hydroxyproline was detected by incubating with Chloramine T and p-dimethylaminobenzaldehyde and the absorbance was measured at 550 nm. Each sample was run in triplicate. Collagen content in lung or aorta tissues was expressed as micrograms of collagen per lung or aorta and was converted from micrograms of hydroxyproline.

Solubility (statement) = format: physicochemical
[3] = test system: TGFβ1-induced epithelial-mesenchymal transition (EMT) in A549 adenocarcinoma cells; assay: TGFβ1-induced EMT in A549 cells (image-based screen, immunoblot); format: cell-based; conditions: catechins 1 and 10 μM, 48 h
Procedure: High throughput screen and high content imaging analysis. A549 cell-based screening of inhibitors to TGFβ1-induced EMT from a bioactive small molecule library was performed in 384-well plate format and the images were captured and analyzed using GE IN Cell 2000 as described previously^16.
(§1) Immunoblot. Pulverized tissue and cells were lysed in RIP A buffer (150 mM NaCl, 50 mM Tris, pH 8.0, 1% Triton X-100, 0.5% sodium deoxycholate, 0.1% SDS, supplemented with protease and phosphatase inhibitors) and analyzed by immunoblotting. Densitometry was quantified using NIH Imaged software.

human LOXL2 = biological target: T2, human LOXL2 (Homo sapiens, UniProt Q9Y4K0); assay: Collagen crosslinking induced by recombinant LOXL2 in lung fibroblasts (Sircol assay); format: cell-based; conditions: primary human lung fibroblasts, 7 days
T2 sequence (Q9Y4K0 26-774): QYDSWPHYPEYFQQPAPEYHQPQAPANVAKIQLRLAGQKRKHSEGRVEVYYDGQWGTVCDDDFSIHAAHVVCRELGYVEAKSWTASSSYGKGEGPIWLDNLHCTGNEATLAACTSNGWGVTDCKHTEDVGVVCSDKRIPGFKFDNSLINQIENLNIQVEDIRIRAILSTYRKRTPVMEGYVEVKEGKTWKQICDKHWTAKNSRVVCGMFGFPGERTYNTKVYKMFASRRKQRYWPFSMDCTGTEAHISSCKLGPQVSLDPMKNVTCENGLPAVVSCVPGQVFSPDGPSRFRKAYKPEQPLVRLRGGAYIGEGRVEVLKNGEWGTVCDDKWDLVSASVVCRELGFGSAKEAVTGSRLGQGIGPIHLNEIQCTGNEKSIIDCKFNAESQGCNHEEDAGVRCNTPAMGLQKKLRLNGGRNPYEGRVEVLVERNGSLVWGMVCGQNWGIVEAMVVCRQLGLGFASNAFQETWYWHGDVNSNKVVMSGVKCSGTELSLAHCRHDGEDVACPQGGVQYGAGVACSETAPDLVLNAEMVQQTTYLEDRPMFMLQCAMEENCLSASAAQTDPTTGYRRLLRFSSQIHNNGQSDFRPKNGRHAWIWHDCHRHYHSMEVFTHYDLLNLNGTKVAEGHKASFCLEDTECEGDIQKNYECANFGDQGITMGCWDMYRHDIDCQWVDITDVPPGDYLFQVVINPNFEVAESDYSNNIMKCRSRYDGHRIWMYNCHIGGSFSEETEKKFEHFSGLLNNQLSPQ
Procedure: Preparation of insoluble cross-linked collagen. Fibroblasts were cultured on 10 cm dish until confluent. The medium was then changed to Dulbecco's modified Eagle's medium (DMEM) containing 5% FBS, 100 μM L-ascorbic acid with 500 kDa Dextran Sulfate at 100 μg/ml, and 50 ng/ml recombinant human LOXL2 (rhLOXL2) for 7 days^21,22. The cell layer was extracted with 0.5 M acetic acid and 0.1 mg/ml pepsin overnight at 4° C. The leftover insoluble fraction was further extracted and the insoluble cross-linked collagen measured using Sircol Insoluble Collagen Assay kit according to manufacture's instruction.

[4] = test system: TGFβ1 signaling (p-smad3) in A549 cells; assay: TGFβ1-induced p-smad generation in cells (immunoblot); format: cell-based; conditions: 0.5-10 μM
Procedure: as §1

[5] = biological target: T3, ALK5/TGFβRI catalytic domain (Homo sapiens, UniProt P36897); assay: ALK5/TGFβRI catalytic domain kinase assay; format: biochemical
T3 construct: ALK5/TGFβRI kinase assays using purified catalytic domain was performed
T3 sequence (P36897 205-495 limits assumed): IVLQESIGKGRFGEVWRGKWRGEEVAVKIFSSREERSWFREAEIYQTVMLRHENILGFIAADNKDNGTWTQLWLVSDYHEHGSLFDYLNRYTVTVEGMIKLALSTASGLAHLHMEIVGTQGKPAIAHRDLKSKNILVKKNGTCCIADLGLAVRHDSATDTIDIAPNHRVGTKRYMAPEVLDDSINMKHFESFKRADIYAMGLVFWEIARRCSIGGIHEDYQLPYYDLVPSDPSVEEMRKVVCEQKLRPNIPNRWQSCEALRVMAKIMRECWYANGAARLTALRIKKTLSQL
Procedure: ALK5/TGFβRI catalytic domain kinase assay. ALK5/TGFβRI kinase assays using purified catalytic domain was performed. The reaction buffer contains 20 mM Hepes (pH 7.5), 10 mM MgCl2, 1 mM EGTA, 0.02% Brij35, 0.02 mg/ml BSA, 0.1 mM Na3VO4, 2 mM DTT, and 200 μM NAC. In brief, ten 3-fold series dilutions of 3Abd and 2Abd starting at 100 μM was delivered into kinase reaction mixture with kinase, cofactors, and substrate. After 20 min incubation at room temperature, ^33P-ATP was delivered into the mixture to initiate the reaction. Kinase activity was detected 2 h later by P81 filter-binding method.

Oc1cccc(Cl)c1O [3 Cc, 3-chlorocatechol]
activity in a pull down kinase assay from cells overexpressing TGFβRI [1]: not

O=c1oc2c(O)c(O)cc3c(=O)oc4c(O)c(O)cc1c4c23 [EA, Ellagic acid]
survival after intratracheal bleomycin ([2]; EA chow day 21, EA pump day 17): improve survival | collagen accumulation after intratracheal bleomycin ([2]; ad libitum chow of 2% w/w raspberry extract rich in EA and EA precursors): substantially block | solubility (Solubility (statement)): poorly soluble

Oc1cc(O)c2c(c1)O[C@H](c1ccc(O)c(O)c1)[C@H](O)C2 [EC, epicatechin]
inhibition of snail 1 and fibronectin in TGFβ1 stimulated A549 cells [3]: no activity

Oc1cc(O)c2c(c1)O[C@H](c1cc(O)c(O)c(O)c1)[C@H](O)C2 [EGC, epigallocatechin]
inhibition of snail 1 and fibronectin in TGFβ1 stimulated A549 cells [3]: potent inhibitor

CC(=O)N[C@@H](CS)C(=O)O [NAC, N-acetylcysteine]
effect on collagen crosslinking induced by recombinant LOXL2 (human LOXL2): no effect

NC(=O)c1ccc(-c2nc(-c3ccc4c(c3)OCO4)c(-c3ccccn3)[nH]2)cc1 [SB431542]
effect on collagen crosslinking induced by recombinant LOXL2 (human LOXL2): no effect

Nc1c(O)cccc1O [Target 2Abd, 2-aminobenzene-1,3-diol]
inhibition of TGFβ1-induced p-smad3 and snail 1 without pre-incubation and regardless of LOXL2 expression [4]: not | direct inhibition of TGFβRI kinase activity [5]: not

Nc1cccc(O)c1O [Target 3Abd, 3-aminobenzene-1,2-diol]
inhibition of TGFβ1-induced p-smad3 and snail 1 without pre-incubation and regardless of LOXL2 expression [4]: potent inhibitor | activity in a pull down kinase assay from cells overexpressing TGFβRI [1]: blocked activity | direct inhibition of TGFβRI kinase activity [5]: directly inhibit; also recorded: directly blocked | IC50 ([5]; ten doses starting from 100 μM, 33P-ATP): ~3 µM and 3 µM

Nc1ccc(O)c(O)c1 [Target 4Abd, 4-aminobenzene-1,2-diol]
inhibition of TGFβ1-induced p-smad3 and snail 1 without pre-incubation and regardless of LOXL2 expression [4]: not
